Experimental data as given in the supplement of paper PMC10627819.

Legend:
S. aureus DSM 20231 = test: Bliss interaction score (quartile over a dose matrix) (fitness difference); higher = more antagonism (negative = synergy)
Method in brief: (§1)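 Fitness was OD595 at entry into stationary phase divided by the plate's robust no-drug mean and capped at 1; single-drug fitness was inferred from combination data. The Bliss score is observed minus expected (product) fitness, summarised by quartiles over technical, biological and donor/recipient replicates.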

B. subtilis 168 = test: as above
Method in brief: as §1

S. aureus Newman = test: as above
Method in brief: as §1

S. pneumoniae D39V [1] = test: as above
Method in brief: as §1

S. pneumoniae D39V [2] = test: fitness (endpoint OD595 vs no drug) (fraction); higher = more growth
Method in brief: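 At 37 °C, bacteria in TSB, LB Lennox or CY were grown in 384-well plates from a starting OD595 of 0.01. OD595 was measured every 30 min for 14 h, with the first reading used as background. Fitness is the optical density at the switch to stationary phase as a fraction of the robust mean of no-drug control wells, capped at 1.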
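Throughout, for Bliss interaction score (quartile over a dose matrix): first quartile when negative (synergy) and third quartile when positive (antagonism).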

SMILES: C[C@@H](O)[C@H]1C(=O)N2C(C(=O)O)=C(SCCNC=N)C[C@H]12 [Imipenem] + C[C@H]1COc2c(N3CCN(C)CC3)c(F)cc3c(=O)c(C(=O)O)cn1c23 [Levofloxacin]
- Bliss interaction score (S. aureus DSM 20231): 0.025
- Bliss interaction score (B. subtilis 168): -0.17
- Bliss interaction score (S. aureus Newman): 0.0287
- Bliss interaction score (S. pneumoniae D39V [1]): -0.0377
- fitness (S. pneumoniae D39V [2]; first compound 0.005 µg/mL, partner 0.1725 µg/mL): 0.958
- fitness (S. pneumoniae D39V [2]; first compound 0.005 µg/mL, partner 0.345 µg/mL): 0.894
- fitness (S. pneumoniae D39V [2]; first compound 0.005 µg/mL, partner 0.69 µg/mL): 0.571
- fitness (S. pneumoniae D39V [2]; first compound 0.0065 µg/mL, partner 0.2 µg/mL): 0.886
- fitness (S. pneumoniae D39V [2]; first compound 0.0065 µg/mL, partner 0.4 µg/mL): 0.77
- fitness (S. pneumoniae D39V [2]; first compound 0.0065 µg/mL, partner 0.8 µg/mL): 0.227
- fitness (S. pneumoniae D39V [2]; first compound 0.01 µg/mL, partner 0.1725 µg/mL): 0.948
- fitness (S. pneumoniae D39V [2]; first compound 0.01 µg/mL, partner 0.345 µg/mL): 0.877
- fitness (S. pneumoniae D39V [2]; first compound 0.01 µg/mL, partner 0.69 µg/mL): 0.615
- fitness (S. pneumoniae D39V [2]; first compound 0.013 µg/mL, partner 0.2 µg/mL): 0.885
- fitness (S. pneumoniae D39V [2]; first compound 0.013 µg/mL, partner 0.4 µg/mL): 0.778
- fitness (S. pneumoniae D39V [2]; first compound 0.013 µg/mL, partner 0.8 µg/mL): 0.361
- fitness (S. pneumoniae D39V [2]; first compound 0.02 µg/mL, partner 0.1725 µg/mL): 0.963
- fitness (S. pneumoniae D39V [2]; first compound 0.02 µg/mL, partner 0.345 µg/mL): 0.826
- fitness (S. pneumoniae D39V [2]; first compound 0.02 µg/mL, partner 0.69 µg/mL): 0.576
- fitness (S. pneumoniae D39V [2]; first compound 0.026 µg/mL, partner 0.2 µg/mL): 0.871
- fitness (S. pneumoniae D39V [2]; first compound 0.026 µg/mL, partner 0.4 µg/mL): 0.713
- fitness (S. pneumoniae D39V [2]; first compound 0.026 µg/mL, partner 0.8 µg/mL): 0.329

SMILES: C[C@@H](O)[C@H]1C(=O)N2C(C(=O)O)=C(SCCNC=N)C[C@H]12 [Imipenem] + C[n+]1ccc(-c2cc[n+](C)cc2)cc1 [Paraquat]
- Bliss interaction score (S. aureus DSM 20231): 0.0307
- Bliss interaction score (B. subtilis 168): -0.0424
- Bliss interaction score (S. aureus Newman): 0.0426
- Bliss interaction score (S. pneumoniae D39V [1]): 0.0638
- fitness (S. pneumoniae D39V [2]; first compound 0.005 µg/mL, partner 1.5 µg/mL, one replicate): 0.991
- fitness (S. pneumoniae D39V [2]; first compound 0.005 µg/mL, partner 3 µg/mL, one replicate): 0.994
- fitness (S. pneumoniae D39V [2]; first compound 0.005 µg/mL, partner 6 µg/mL, one replicate): ≥ 1
- fitness (S. pneumoniae D39V [2]; first compound 0.0065 µg/mL, partner 1.5 µg/mL): 0.97
- fitness (S. pneumoniae D39V [2]; first compound 0.0065 µg/mL, partner 3 µg/mL): 0.968
- fitness (S. pneumoniae D39V [2]; first compound 0.0065 µg/mL, partner 6 µg/mL): 0.926
- fitness (S. pneumoniae D39V [2]; first compound 0.01 µg/mL, partner 1.5 µg/mL, one replicate): 0.997
- fitness (S. pneumoniae D39V [2]; first compound 0.01 µg/mL, partner 3 µg/mL, one replicate): 0.996
- fitness (S. pneumoniae D39V [2]; first compound 0.01 µg/mL, partner 6 µg/mL, one replicate): ≥ 1
- fitness (S. pneumoniae D39V [2]; first compound 0.013 µg/mL, partner 1.5 µg/mL): 0.983
- fitness (S. pneumoniae D39V [2]; first compound 0.013 µg/mL, partner 3 µg/mL): 0.969
- fitness (S. pneumoniae D39V [2]; first compound 0.013 µg/mL, partner 6 µg/mL): 0.799
- fitness (S. pneumoniae D39V [2]; first compound 0.02 µg/mL, partner 1.5 µg/mL, one replicate): ≥ 1
- fitness (S. pneumoniae D39V [2]; first compound 0.02 µg/mL, partner 3 µg/mL, one replicate): ≥ 1
- fitness (S. pneumoniae D39V [2]; first compound 0.02 µg/mL, partner 6 µg/mL, one replicate): 0.998
- fitness (S. pneumoniae D39V [2]; first compound 0.026 µg/mL, partner 3 µg/mL): 0.939
- fitness (S. pneumoniae D39V [2]; first compound 0.026 µg/mL, partner 6 µg/mL): 0.847

SMILES: C[C@@H](O)[C@H]1C(=O)N2C(C(=O)O)=C(SCCNC=N)C[C@H]12 [Imipenem] + Cc1cc(NS(=O)(=O)c2ccc(N)cc2)no1 [Sulfamethoxazol]
- Bliss interaction score (S. aureus DSM 20231): -0.0317
- Bliss interaction score (B. subtilis 168): 0.0891
- Bliss interaction score (S. aureus Newman): -0.0488
- Bliss interaction score (S. pneumoniae D39V [1]): 0.066
- fitness (S. pneumoniae D39V [2]; first compound 0.005 µg/mL, partner 1 µg/mL, one replicate): 0.993
- fitness (S. pneumoniae D39V [2]; first compound 0.005 µg/mL, partner 2 µg/mL, one replicate): 0.957
- fitness (S. pneumoniae D39V [2]; first compound 0.005 µg/mL, partner 4 µg/mL, one replicate): 0.879
- fitness (S. pneumoniae D39V [2]; first compound 0.0065 µg/mL, partner 1 µg/mL): 0.96
- fitness (S. pneumoniae D39V [2]; first compound 0.0065 µg/mL, partner 2 µg/mL): 0.976
- fitness (S. pneumoniae D39V [2]; first compound 0.0065 µg/mL, partner 4 µg/mL): 0.976
- fitness (S. pneumoniae D39V [2]; first compound 0.01 µg/mL, partner 1 µg/mL, one replicate): 0.998
- fitness (S. pneumoniae D39V [2]; first compound 0.01 µg/mL, partner 2 µg/mL, one replicate): 0.924
- fitness (S. pneumoniae D39V [2]; first compound 0.01 µg/mL, partner 4 µg/mL, one replicate): 0.856
- fitness (S. pneumoniae D39V [2]; first compound 0.013 µg/mL, partner 1 µg/mL): 0.923
- fitness (S. pneumoniae D39V [2]; first compound 0.013 µg/mL, partner 2 µg/mL): 0.932
- fitness (S. pneumoniae D39V [2]; first compound 0.013 µg/mL, partner 4 µg/mL): 0.941
- fitness (S. pneumoniae D39V [2]; first compound 0.02 µg/mL, partner 1 µg/mL, one replicate): 0.959
- fitness (S. pneumoniae D39V [2]; first compound 0.02 µg/mL, partner 2 µg/mL, one replicate): 0.982
- fitness (S. pneumoniae D39V [2]; first compound 0.02 µg/mL, partner 4 µg/mL, one replicate): 0.859
- fitness (S. pneumoniae D39V [2]; first compound 0.026 µg/mL, partner 1 µg/mL): 0.82
- fitness (S. pneumoniae D39V [2]; first compound 0.026 µg/mL, partner 2 µg/mL): 0.925
- fitness (S. pneumoniae D39V [2]; first compound 0.026 µg/mL, partner 4 µg/mL): 0.917
